Results taken from patent US8247211B2, “Glycopeptide antibiotics” (American Cyanamid Company, priority 2001, dated 2012).
Converted amounts (≈) assume the structure as drawn.

Legend:
Test in all cases: In vitro antibacterial evaluation: minimum inhibitory concentration (MIC), broth dilution method
Type in all cases: cell-based
Staphylococcus sp. = test system: Staphylococcus sp.
In short: (§1)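 Susceptibility determined by NCCLS-recommended broth dilution (M7-A2), Muller-Hinton II […]. Concentration span 64-0.06 μg/mL, inoculum 5×10^5 CFU/mL. Isolates include strains resistant to methicillin, penicillin and/or vancomycin.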

Escherichia coli = settings: 18 hours at 35° C.
In short: as §1

Streptococcus sp. = settings: 18 hours at 35° C.
In short: as §1

Enterococcus sp. = settings: 18 hours at 35° C.
In short: as §1

[1] = broth dilution, inoculum 5×10^5 CFU/mL

For CC(c1ccc(Cl)cc1)C1NC(=O)CNC(=O)C(CO)NC(=O)C(C(O)C2CNC(=N)N2C2OC(CO)C(O)C(O)C2O)NC(=O)C(C(O)C2CNC(=N)N2)NC(=O)C(Cc2ccc(OC3OC(CO)C(OC4OC5COC(c6ccccc6)OC5C(O)C4O)C(O)C3O)cc2)NC1=O (stereo not drawn) [Example 195, Cyclo[glycyl-4-chloro-β-methylphenylalanyl-O-[4-O-(4,6-O-benzylidenehexopyranosyl)-hexopyranosyl]tyrosyl-3-(2-iminoimidazolidin-4-yl)seryl-3-(3-hexopyranosyl-2-iminoimidazolidin-4-yl)serylseryl]], the “MIC Staphylococcus aureus (ATCC 29213)” value (Staphylococcus sp.; strain ATCC 29213) was 0.5 mg/L (≈ 0.353 µM), the “MIC Staphylococcus aureus (GC 1131)” value (Staphylococcus sp.; strain GC 1131) was 0.5 mg/L (≈ 0.353 µM) and the “MIC Staphylococcus aureus (GC 3051)” value (Staphylococcus sp.; strain GC 3051) was 0.5 mg/L (≈ 0.353 µM). The “MIC Staphylococcus aureus (GC 3053)” value (Staphylococcus sp.; strain GC 3053) was 0.5 mg/L (≈ 0.353 µM), the “MIC Staphylococcus aureus (GC 4541)” value (Staphylococcus sp.; strain GC 4541) was 0.5 mg/L (≈ 0.353 µM) and the “MIC Staphylococcus aureus (GC 4542)” value (Staphylococcus sp.; strain GC 4542) was 0.5 mg/L (≈ 0.353 µM). The “MIC Staphylococcus aureus-SMITH (GC 4543)” value (Staphylococcus sp.; strain GC 4543) was 0.5 mg/L (≈ 0.353 µM), the “MIC Staphylococcus aureus (GC 4544)” value (Staphylococcus sp.; strain GC 4544) was 0.5 mg/L (≈ 0.353 µM) and the “MIC Staphylococcus aureus (GC 4545)” value (Staphylococcus sp.; strain GC 4545) was 0.5 mg/L (≈ 0.353 µM). The “MIC Staphylococcus haemolyticus (GC 4546)” value (Staphylococcus sp.; strain GC 4546) was 2 mg/L (≈ 1.41 µM), the “MIC Coagulase Negative Staphylococcus (GC 4547)” value (Staphylococcus sp.; strain GC 4547) was 4 mg/L (≈ 2.82 µM) and the “MIC Coagulase Negative Staphylococcus (GC 4548)” value (Staphylococcus sp.; strain GC 4548) was 2 mg/L (≈ 1.41 µM). For the same compound, the “MIC Coagulase Negative Staphylococcus (GC 4549)” value (Staphylococcus sp.; strain GC 4549) was 1 mg/L (≈ 0.705 µM), the “MIC Coagulase Negative Staphylococcus (GC 4551)” value (Staphylococcus sp.; strain GC 4551) was 4 mg/L (≈ 2.82 µM) and the “MIC Coagulase Negative Staphylococcus (GC 6257)” value (Staphylococcus sp.; strain GC 6257) was 2 mg/L (≈ 1.41 µM). For the same compound, the “MIC Escherichia coli (ATCC 25922)” value (Escherichia coli; Escherichia coli (ATCC 25922)) was >0.5 mg/L, the “MIC Escherichia coli (GC 4559)” value (Escherichia coli; Escherichia coli (GC 4559)) was >0.5 mg/L and the “MIC Escherichia coli (GC 4560)” value (Escherichia coli; Escherichia coli (GC 4560)) was 0.5 mg/L (≈ 0.353 µM). For the same compound, the “MIC Streptococcus agalactiae (GC 4564)” value (Streptococcus sp.; Streptococcus agalactiae (GC 4564)) was 0.5 mg/L (≈ 0.353 µM), the “MIC Streptococcus pneumoniae (ATCC 6301)” value (Streptococcus sp.; Streptococcus pneumoniae (ATCC 6301)) was 0.12 mg/L (≈ 0.0846 µM) and the “MIC Streptococcus pneumoniae (GC 1894)” value (Streptococcus sp.; Streptococcus pneumoniae (GC 1894)) was 0.12 mg/L (≈ 0.0846 µM). For the same compound, the “MIC Streptococcus pneumoniae (GC 4565)” value (Streptococcus sp.; Streptococcus pneumoniae (GC 4565)) was 0.12 mg/L (≈ 0.0846 µM), the “MIC Streptococcus pyogenes (GC 4563)” value (Streptococcus sp.; Streptococcus pyogenes (GC 4563)) was 0.12 mg/L (≈ 0.0846 µM) and the “MIC Streptococcus agalactiae (GC 4564)” value (Streptococcus sp.; [1]) was 0.5 mg/L (≈ 0.353 µM). For the same compound, the “MIC Streptococcus pneumoniae (ATCC 6301)” value (Streptococcus sp.; [1]) was 0.12 mg/L (≈ 0.0846 µM), the “MIC Streptococcus pneumoniae (GC 1894)” value (Streptococcus sp.; [1]) was 0.12 mg/L (≈ 0.0846 µM) and the “MIC Streptococcus pneumoniae (GC 4565)” value (Streptococcus sp.; [1]) was 0.12 mg/L (≈ 0.0846 µM). The “MIC Streptococcus pyogenes (GC 4563)” value (Streptococcus sp.; [1]) was 0.12 mg/L (≈ 0.0846 µM), the “MIC Enterococcus avium (GC 4558)” value (Enterococcus sp.; Enterococcus avium (GC 4558)) was 0.5 mg/L (≈ 0.353 µM) and the “MIC Enterococcus faecalis (ATCC 29212)” value (Enterococcus sp.; Enterococcus faecalis (ATCC 29212)) was 0.5 mg/L (≈ 0.353 µM). For the same compound, the “MIC Enterococcus faecalis (GC 2242)” value (Enterococcus sp.; Enterococcus faecalis (GC 2242)) was 0.5 mg/L (≈ 0.353 µM), the “MIC Enterococcus faecalis (GC 2691)” value (Enterococcus sp.; Enterococcus faecalis (GC 2691)) was 0.5 mg/L (≈ 0.353 µM) and the “MIC Enterococcus faecalis (GC 3059)” value (Enterococcus sp.; Enterococcus faecalis (GC 3059)) was 0.5 mg/L (≈ 0.353 µM). The “MIC Enterococcus faecalis (GC 4552)” value (Enterococcus sp.; Enterococcus faecalis (GC 4552)) was 0.5 mg/L (≈ 0.353 µM), the “MIC Enterococcus faecalis (GC 4553)” value (Enterococcus sp.; Enterococcus faecalis (GC 4553)) was 0.5 mg/L (≈ 0.353 µM) and the “MIC Enterococcus faecalis (GC 4554)” value (Enterococcus sp.; Enterococcus faecalis (GC 4554)) was 0.5 mg/L (≈ 0.353 µM). The “MIC Enterococcus faecalis (GC 6189)” value (Enterococcus sp.; Enterococcus faecalis (GC 6189)) was 0.5 mg/L (≈ 0.353 µM), the “MIC Enterococcus faecium (GC 2243)” value (Enterococcus sp.; Enterococcus faecium (GC 2243)) was 0.5 mg/L (≈ 0.353 µM) and the “MIC Enterococcus faecium (GC 4556)” value (Enterococcus sp.; Enterococcus faecium (GC 4556)) was 0.5 mg/L (≈ 0.353 µM). For the same compound, the “MIC Enterococcus faecium (GC 4557)” value (Enterococcus sp.; Enterococcus faecium (GC 4557)) was 0.5 mg/L (≈ 0.353 µM), the “MIC Enterococcus avium (GC 4558)” value (Enterococcus sp.; [1]) was 0.5 mg/L (≈ 0.353 µM) and the “MIC Enterococcus faecalis (ATCC 29212)” value (Enterococcus sp.; [1]) was 0.5 mg/L (≈ 0.353 µM). The “MIC Enterococcus faecalis (GC 2242)” value (Enterococcus sp.; [1]) was 0.5 mg/L (≈ 0.353 µM), the “MIC Enterococcus faecalis (GC 2691)” value (Enterococcus sp.; [1]) was 0.5 mg/L (≈ 0.353 µM) and the “MIC Enterococcus faecalis (GC 3059)” value (Enterococcus sp.; [1]) was 0.5 mg/L (≈ 0.353 µM). For the same compound, the “MIC Enterococcus faecalis (GC 4552)” value (Enterococcus sp.; [1]) was 0.5 mg/L (≈ 0.353 µM), the “MIC Enterococcus faecalis (GC 4553)” value (Enterococcus sp.; [1]) was 0.5 mg/L (≈ 0.353 µM) and the “MIC Enterococcus faecalis (GC 4554)” value (Enterococcus sp.; [1]) was 0.5 mg/L (≈ 0.353 µM). For the same compound, the “MIC Enterococcus faecalis (GC 6189)” value (Enterococcus sp.; [1]) was 0.5 mg/L (≈ 0.353 µM), the “MIC Enterococcus faecium (GC 2243)” value (Enterococcus sp.; [1]) was 0.5 mg/L (≈ 0.353 µM) and the “MIC Enterococcus faecium (GC 4556)” value (Enterococcus sp.; [1]) was 0.5 mg/L (≈ 0.353 µM). The “MIC Enterococcus faecium (GC 4557)” value (Enterococcus sp.; [1]) was 0.5 mg/L (≈ 0.353 µM).
